Values of other authors, collected in patent US20150297310A1, “METHODS FOR SELECTING A TREATMENT FOR CANCER” (priority 2014, published 2015).

Tested on: AB1-HA tumor
Settings: AB1-HA tumor model, CTX treatment at Day 9

O=P1(N(CCCl)CCCl)NCCCO1 (stereo not shown) [CTX, Cyclophosphamide]
cure rate: 75%
